# Biological target: NACHT, LRR and PYD domains-containing protein 3 (Homo sapiens, UniProt Q96P20)
# Assay: Evaluation of NLRP3 Inflammasome Inhibitory Activity Assay
# Protocol: The NLRP3 inflammasome inhibitory activity of test compounds were evaluated CM the basis of the inhibitory activity of the IL-1β, production in THP1-Null cells (Product Number: thp-null, InvivoGen). […] A solution containing a test compound (20 μL/well) was added to test compound-setting wells. […] The supernatant of the culture was cryonically stored (set at −20° C.) until measurement of IL-1β.
# Chain of NACHT, LRR and PYD domains-containing protein 3 (Q96P20 whole entry, the tested form may be a part): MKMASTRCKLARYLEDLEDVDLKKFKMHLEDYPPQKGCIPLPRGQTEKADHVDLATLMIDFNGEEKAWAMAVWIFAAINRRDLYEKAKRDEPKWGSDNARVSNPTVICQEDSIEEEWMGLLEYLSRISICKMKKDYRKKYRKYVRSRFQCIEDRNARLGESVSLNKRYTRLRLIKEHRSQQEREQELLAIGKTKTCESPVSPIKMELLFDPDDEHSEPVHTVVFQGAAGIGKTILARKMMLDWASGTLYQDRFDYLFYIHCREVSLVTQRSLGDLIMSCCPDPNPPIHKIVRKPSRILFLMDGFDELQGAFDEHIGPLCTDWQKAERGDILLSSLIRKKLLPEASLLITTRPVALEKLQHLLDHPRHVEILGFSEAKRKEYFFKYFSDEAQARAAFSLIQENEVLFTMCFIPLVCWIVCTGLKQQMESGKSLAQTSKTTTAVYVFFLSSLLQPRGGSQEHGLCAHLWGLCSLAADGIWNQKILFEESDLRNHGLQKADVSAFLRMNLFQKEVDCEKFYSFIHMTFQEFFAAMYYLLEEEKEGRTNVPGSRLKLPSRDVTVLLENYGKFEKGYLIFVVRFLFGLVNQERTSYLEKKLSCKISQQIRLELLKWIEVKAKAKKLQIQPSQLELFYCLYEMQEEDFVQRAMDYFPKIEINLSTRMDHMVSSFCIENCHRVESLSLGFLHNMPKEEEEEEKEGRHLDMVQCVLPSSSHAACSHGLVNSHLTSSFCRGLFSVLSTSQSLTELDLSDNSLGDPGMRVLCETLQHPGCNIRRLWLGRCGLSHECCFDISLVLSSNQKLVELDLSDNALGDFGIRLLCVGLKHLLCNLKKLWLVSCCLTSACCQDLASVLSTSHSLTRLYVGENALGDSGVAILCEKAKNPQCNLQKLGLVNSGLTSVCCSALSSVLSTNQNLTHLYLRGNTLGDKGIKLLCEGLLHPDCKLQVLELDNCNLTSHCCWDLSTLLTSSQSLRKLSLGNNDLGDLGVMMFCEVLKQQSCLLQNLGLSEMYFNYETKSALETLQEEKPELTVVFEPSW
row,Compound,IC50 [nM]
1,"Cc1ccc(C(C)C)cc1Nc1nc(C(=O)NS(=O)(=O)N(C)C)co1 [US20230399319, Example 2-040]",130
2,"Cc1cc(Nc2nc(C(=O)NS(=O)(=O)N3CCOC(C(C)(C)O)CC3)co2)c(C)cc1F (stereo not given) [US20230399319, Example 3-002]",49
3,"COC[C@@H]1CCN(S(=O)(=O)NC(=O)c2coc(Nc3cc(C)c(F)cc3C)n2)CCO1 [US20230399319, Example 2-347]",55
4,"Cc1noc(C2(C)CCN(S(=O)(=O)NC(=O)c3coc(Nc4cc(C(F)(F)F)ccc4C)n3)CC2)n1 [US20230399319, Example 2-285]",170
5,"Cc1ccc(C(F)(F)F)cc1Nc1nc(C(=O)NS(=O)(=O)N2CCCC(C#N)(C(=O)N(C)C)CC2)co1 (stereo not given) [US20230399319, Example 2-260]",41
6,"Cc1ccc(C(F)(F)F)cc1Nc1nc(C(=O)NS(=O)(=O)N2CCCC(CC#N)CC2)co1 (stereo not given) [US20230399319, Example 2-150]",25
7,"Cc1cn(C(C)C(F)(F)F)nc1Nc1nc(C(=O)NS(=O)(=O)N2CCCOCC2)co1 (stereo not given) [US20230399319, Example 2-178]",880
8,"Cc1ccc(C(F)(F)F)cc1Nc1nc(C(=O)NS(=O)(=O)N2CCN(c3ccccc3)CC2)co1 [US20230399319, Example 2-274]",180
9,"CCOCC1CCN(S(=O)(=O)NC(=O)c2coc(Nc3cc(OC)c(F)cc3C)n2)CCO1 (stereo not given) [US20230399319, Example 2-352]",26
10,"Cc1ccc(C(F)(F)F)cc1Nc1nc(C(=O)NS(=O)(=O)N(C(C)C)C(C)C)co1 [US20230399319, Example 2-051]",44
11,"COC[C@@H]1CCCN1S(=O)(=O)NC(=O)c1coc(Nc2cc(C(F)(F)F)ccc2C)n1 [US20230399319, Example 2-038]",< 30
12,"Cc1ccc(C)c(Nc2nc(C(=O)NS(=O)(=O)N3CCCC(C#N)CC3)co2)c1 (stereo not given) [US20230399319, Example 2-300]",190
13,"Cc1ccc(C)c(Nc2nc(C(=O)NS(=O)(=O)N3CCCOCC3)co2)c1C [US20230399319, Example 2-114]",340
14,"CCC(C)n1cc(C)c(Nc2nc(C(=O)NS(=O)(=O)N3CCCOCC3)co2)n1 (stereo not given) [US20230399319, Example 2-200]",1100
15,"Cc1ccc(C(F)(F)F)cc1Nc1nc(C(=O)NS(=O)(=O)N(C)CCn2cccn2)co1 [US20230399319, Example 2-279]",74
16,"CC(C)c1ccc(C(F)(F)F)cc1Nc1nc(C(=O)NS(=O)(=O)N2CCCC2CO)co1 (stereo not given) [US20230399319, Example 2-124]",47
17,"Cc1ccc(C(F)(F)F)cc1Nc1nc(C(=O)NS(=O)(=O)N2C[C@H]3COC[C@@H]3C2)co1 [US20230399319, Example 2-201]",320
18,"Cc1ccc(C(F)(F)F)cc1Nc1nc(C(=O)NS(=O)(=O)N(C)Cc2ccccc2)co1 [US20230399319, Example 2-163]",49
19,"Cc1ccc(C(F)(F)F)cc1Nc1nc(C(=O)NS(=O)(=O)N2CCN(c3ncccn3)CC2)co1 [US20230399319, Example 2-265]",1100
20,"Cc1ccc(C(F)(F)F)cc1Nc1nc(C(=O)NS(=O)(=O)N2CCCCCC2)co1 [US20230399319, Example 2-145]",42

# From BindingDB's records for patent US20230399319 (Japan Tobacco, 2023)
